# According to article PMC9820118, “Betulin Acid Ester Derivatives Inhibit Cancer Cell Growth by Inducing Apoptosis through Caspase Cascade Activation: A Comprehensive In Vitro and In Silico Study” (International Journal of Molecular Sciences, 2022):
# Where two headings read alike, the source gives them in different places.
# How the values were obtained:
# [1] = system: MV4-11 cells; assay: Antiproliferative activity, MTT assay, MV4-11 leukemia cells; type: cell-based, human; settings: for Calculated Selectivity Index SI, MV4-11: IC50 BALB/3T3 / IC50 MV4-11; for IC50: 72 h incubation, MTT, read-out: Growth inhibition IC50, leukemia cell line MV4-11
# Procedure: (§1) The in vitro antiproliferative activity tests have been conducted against four human cancer cell lines: MV4-11 biphenotypic B myelomonocytic leukemia cell line, A549 lung carcinoma cell line, MCF-7 breast carcinoma cell line, PC-3 prostate carcinoma cell line and one normal BALB/3T3 mouse fibroblast cell line. […] All tested compounds were dissolved in DMSO and diluted with a culture medium to a desired concentration. […] Cell viability, after 72 h incubation of the cells with tested compounds, was determined using tetrazolinum dye MTT (for MV4-11 cells) or sulforhodamine B (SRB test, for MCF-7, A549, PC-3, BALB/3T3 cells) colorimetric assays.
# (§2) Human biphenotypic B myelomonocytic leukemia MV4-11, murine normal fibroblast BALB/3T3 cells were obtained from the American Type Culture Collection (USA); and human lung carcinoma A549, human breast cancer MCF-7 and human prostate adenocarcinoma PC-3 were obtained from the European Collection of Authenticated Cell Cultures (UK).
# (§3) MV4-11 and PC-3 cells were cultured in RPMI 1640 medium (HIIET PAS, Poland) with 1.0 mM sodium pyruvate (only MV4-11) and 10% fetal bovine serum (FBS) (all from Merck, Darmstadt, Germany). A549 cells were cultured in RPMI 1640 + Opti-MEM (1:1) ((HIIET PAS, Poland and Gibco, UK) supplemented with 5% fetal bovine serum (Merck, Darmstadt, Germany). The MCF-7 cells were cultured in Eagle medium (HIIET PAS, Poland) supplemented with 8 mg/mL of insulin and 1% of MEM NON-Essential amino acid (all Merck, Darmstadt, Germany). Normal fibroblasts BALB/3T3 cells were cultured in DMEM medium (Gibco, UK) supplemented with 10% fetal bovine serum and 1.0 mM sodium pyruvate (all from Merck, Darmstadt, Germany). All culture media were supplemented with 2 mM L-glutamine (Merck, Darmstadt, Germany), 100 units/ml penicillin, (Polfa Tarchomin S.A., Poland) and 100 µg/mL streptomycin (Merck, Darmstadt, Germany). All cell lines were grown at 37 °C in a 5% CO2 humidified atmosphere.
# (§4) The solutions of the tested compounds were prepared by dissolving the substances in DMSO to the desired concentration (25 mM). Then, the tested compounds were diluted in a culture medium to reach the final concentrations. Before addition of the tested compounds (24 h prior), the cells were plated in 96-well plates (Sarstedt, Germany) at a density of 1 × 10^4, 0.75 × 10^4 (MCF-7) or 0.5 × 10^4 (A549) cells per well. The assay was performed after 72 h of exposure to 100, 10, 1 and 0.1 µM concentration of the tested agents. […] The SRB method determined the amount of cellular proteins. The concentration of the colorimetric probe (formazan in MTT or sulforhodamine B in SRB method) was determined by an optical density measurement using a standard microplate reader for 96-well plates. After optical density measurement, using the data of the mean absorbances of control cells (AbCC), the absorbances of cells treated by the tested compound (AbTr) (for each concentration separately) and the absorbance of the cultured medium (AbCM) the % of cell proliferation inhibition was calculated according to the following formula: % inh. cells proliferation=100−AbTr−AbCM/AbCC−AbCM×100
# (§5) From the obtained proliferation inhibition values, effect-concentration curves of the compound used were plotted. […] IC50 values were calculated for each experiment separately using the Prolab-3 system based on Cheburator 0.4 software [36] and mean values (±SD) are presented. Each compound in each concentration was tested in triplicate in a single experiment, which was repeated 3–5 times.
# [2] = system: A549 cell line; assay: Antiproliferative activity, SRB assay, A549 lung carcinoma cells; settings: for IC50: Homo sapiens, A549, 72 h, read-out: Cytotoxicity IC50 against A549 cell line; for Calculated Selectivity Index SI, A549: IC50 BALB/3T3 / IC50 A549
# Procedure: as §1, §2, §3, §4, §5
# [3] = system: MCF-7 cell line; assay: Antiproliferative activity, SRB assay, MCF-7 breast carcinoma cells; settings: for IC50: Homo sapiens, MCF7, 72 h, read-out: Cytotoxicity IC50 against MCF-7 cell line; for Calculated Selectivity Index SI, MCF-7: IC50 BALB/3T3 / IC50 MCF-7
# Procedure: as §1, §2, §3, §4, §5
# [4] = in vitro; settings: mouse
# Procedure: as §1, §2, §3, §4, §5
# [5] = Experimental lipophilicity by RP-TLC; settings: for RM0: RP-TLC, RP-18 F254S, acetone / Tris buffer pH 7.4, extrapolated to zero acetone
# [6] = system: PC-3 cell line; assay: Antiproliferative activity, SRB assay, PC-3 prostate carcinoma cells; settings: for Calculated Selectivity Index SI, PC-3: IC50 BALB/3T3 / IC50 PC-3; for IC50: Homo sapiens, PC-3, 72 h, read-out: Cytotoxicity IC50 against PC-3 cell line
smiles,measurement,setting,value
C#CCNC(=O)CCCC(=O)OC[C@]12CC[C@@H](C(=C)C)C1C1CCC3[C@@]4(C)CC[C@H](O)C(C)(C)C4CC[C@@]3(C)[C@]1(C)CC2 (stereo partly drawn) [4a],"Calculated Selectivity Index SI, MV4-11",[1],1.2
same,IC50,[2],29.1 µM
same,"Calculated Selectivity Index SI, A549",[2],0.2
same,IC50,[3],50 µM
same,"Calculated Selectivity Index SI, MCF-7",[3],0.1
same,IC50 at 72 h,[4],5.02 µM
same,RM0,[5],5.158
same,"Calculated Selectivity Index SI, PC-3",[6],0.3
C=C(C)C1CCC2(COC(=O)C=C(C)C(=O)N3CCOCC3)CCC3(C)C(CCC4C5(C)CCC(O)C(C)(C)C5CCC43C)C12 (stereo not drawn) [3b],IC50,[1],8.9 µM
same,IC50,"[1]; Homo sapiens, MV4-11, 72 h",< 10 µM
same,"Calculated Selectivity Index SI, MV4-11",[1],2.8
same,IC50,[2],7.42 µM
same,"Calculated Selectivity Index SI, A549",[2],3.3
same,IC50,[3],12.3 µM
same,"Calculated Selectivity Index SI, MCF-7",[3],2.0
same,IC50 at 72 h,[4],24.7 µM
same,RM0,[5],5.086
same,IC50,[6],24.8 µM
same,"Calculated Selectivity Index SI, PC-3",[6],1.0
C=C(C)[C@@H]1CC[C@]2(COC(=O)CSCC(=O)O)CC[C@]3(C)C(CCC4[C@@]5(C)CC[C@H](O)C(C)(C)C5CC[C@]43C)C12 (stereo partly drawn) [compound 9],IC50,"[1]; Homo sapiens, MV4-11, 72 h",26.4 µM
same,RM0,[5],6.087
C#CCNC(=O)CCCCCCCCCC(=O)OC[C@]12CC[C@@H](C(=C)C)C1C1CCC3[C@@]4(C)CC[C@H](O)C(C)(C)C4CC[C@@]3(C)[C@]1(C)CC2 (stereo partly drawn) [5a],IC50,"[1]; Homo sapiens, MV4-11, 72 h",21 µM
same,RM0,[5],5.998
"CC(=O)Nc1ccccc1 [acetanilide, reference compound]",RM0,[5],0.56
C=C(C)C1CCC2(COC(=O)C=C(C)C(=O)N3CCSCC3)CCC3(C)C(CCC4C5(C)CCC(O)C(C)(C)C5CCC43C)C12 (stereo not drawn) [3d],"Calculated Selectivity Index SI, MV4-11",[1],11.8
same,IC50,[2],6.78 µM
same,"Calculated Selectivity Index SI, A549",[2],7.4
same,IC50,[3],34 µM
same,"Calculated Selectivity Index SI, MCF-7",[3],1.5
same,IC50 at 72 h,[4],> 50 µM
same,RM0,[5],5.711
same,IC50,[6],46.1 µM
same,"Calculated Selectivity Index SI, PC-3",[6],1.1
C#CC1(NC(=O)CCCC(=O)OC[C@]23CC[C@@H](C(=C)C)C2C2CCC4[C@@]5(C)CC[C@H](O)C(C)(C)C5CC[C@@]4(C)[C@]2(C)CC3)CCCCC1 (stereo partly drawn) [4e],IC50,"[1]; Homo sapiens, MV4-11, 72 h",22 µM
same,RM0,[5],5.920
C#CCNC(=O)c1cccc(C(=O)OC[C@]23CC[C@@H](C(=C)C)C2C2CCC4[C@@]5(C)CC[C@H](O)C(C)(C)C5CC[C@@]4(C)[C@]2(C)CC3)c1 (stereo partly drawn) [7a],IC50,"[1]; Homo sapiens, MV4-11, 72 h",79.7 µM
same,RM0,[5],5.839
C=C(C)[C@@H]1CC[C@]2(COC(=O)CCCCCCCCCC(=O)N3CCSCC3)CC[C@]3(C)C(CCC4[C@@]5(C)CC[C@H](O)C(C)(C)C5CC[C@]43C)C12 (stereo partly drawn) [5d],IC50,"[1]; Homo sapiens, MV4-11, 72 h",43.6 µM
same,RM0,[5],5.044
"C[C@]12C=CC(=O)C=C1CC[C@@H]1[C@@H]2C(=O)C[C@@]2(C)[C@H]1CC[C@]2(O)C(=O)CO [prednisone, reference compound]",RM0,[5],0.80
C#CC1(NC(=O)CCCCCCCCCC(=O)OC[C@]23CC[C@@H](C(=C)C)C2C2CCC4[C@@]5(C)CC[C@H](O)C(C)(C)C5CC[C@@]4(C)[C@]2(C)CC3)CCCCC1 (stereo partly drawn) [5e],IC50,"[1]; Homo sapiens, MV4-11, 72 h",> 100 µM
same,RM0,[5],6.093
C#CC1(NC(=O)c2cccc(C(=O)OC[C@]34CC[C@@H](C(=C)C)C3C3CCC5[C@@]6(C)CC[C@H](O)C(C)(C)C6CC[C@@]5(C)[C@]3(C)CC4)c2)CCCCC1 (stereo partly drawn) [7e],IC50,"[1]; Homo sapiens, MV4-11, 72 h",> 100 µM
same,RM0,[5],5.746
C=C(C)[C@@H]1CC[C@]2(COC(=O)CCCC(=O)N3CCOCC3)CC[C@]3(C)C(CCC4[C@@]5(C)CC[C@H](O)C(C)(C)C5CC[C@]43C)C12 (stereo partly drawn) [4b],IC50,[1],6.27 µM
same,IC50,"[1]; Homo sapiens, MV4-11, 72 h",< 10 µM
same,"Calculated Selectivity Index SI, MV4-11",[1],5.9
same,IC50,[2],8.47 µM
same,"Calculated Selectivity Index SI, A549",[2],4.3
same,IC50,[3],21.6 µM
same,"Calculated Selectivity Index SI, MCF-7",[3],1.7
same,IC50 at 72 h,[4],36.8 µM
same,RM0,[5],4.961
same,IC50,[6],22.7 µM
same,"Calculated Selectivity Index SI, PC-3",[6],1.6
C=C(C)[C@@H]1CC[C@]2(COC(=O)c3ccccc3C(=O)O)CC[C@]3(C)C(CCC4[C@@]5(C)CC[C@H](O)C(C)(C)C5CC[C@]43C)C12 (stereo partly drawn) [compound 6],IC50,"[1]; Homo sapiens, MV4-11, 72 h",34.4 µM
same,RM0,[5],5.979
same,log PTLC,[5]; from RM0 by calibration curve with eight reference compounds,8.283
C=C(C)[C@@H]1CC[C@]2(COC(=O)c3ccccc3C(=O)N3CCCCC3)CC[C@]3(C)C(CCC4[C@@]5(C)CC[C@H](O)C(C)(C)C5CC[C@]43C)C12 (stereo partly drawn) [6c],IC50,"[1]; Homo sapiens, MV4-11, 72 h",100 µM
same,RM0,[5],5.875
"N.N.[Cl][Pt][Cl] [Cisplatin, cisplatin, reference compound]",IC50,[1],1.83 µM
"Clc1ccc(C(c2ccc(Cl)cc2)C(Cl)(Cl)Cl)cc1 [DDT, dichlorodiphenyltrichloroethane, reference compound]",RM0,[5],4.55
C=C(C)[C@@H]1CC[C@]2(COC(=O)CCCC(=O)O)CC[C@]3(C)C(CCC4[C@@]5(C)CC[C@H](O)C(C)(C)C5CC[C@]43C)C12 (stereo partly drawn) [compound 4],IC50,"[1]; Homo sapiens, MV4-11, 72 h",24 µM
same,"Calculated Selectivity Index SI, MV4-11",[1],1.6
same,IC50,[2],32.5 µM
same,"Calculated Selectivity Index SI, A549",[2],1.2
same,IC50,[3],43.9 µM
same,"Calculated Selectivity Index SI, MCF-7",[3],0.9
same,IC50 at 72 h,[4],37.9 µM
same,RM0,[5],5.250
same,IC50,[6],36.2 µM
same,"Calculated Selectivity Index SI, PC-3",[6],1.0
